Data: ChEMBL document CHEMBL1126459, “Substituted Benzamides with Conformationally Restricted Side Chains. 3. Azabicyclo[x.y.0] derivatives as gastric prokinetic agents” (Bioorg Med Chem Lett, 1992)
Active and inactive are the calls of the source. The calls are words filed in the database; no cut-off is given here.

Experiments:
[1] = Selectivity at Dopamine receptors compared to 5-HT receptors.; format: functional
Mus musculus = test: Dopamine antagonist activity expressed as inhibition of apomorphine-induced climbing in mice, subcutaneous administration; format: functional
Rattus norvegicus [2] = test: Prokinetic activity expressed as stimulation of intragastric pressure in rat at the lowest active dose in mg/kg on subcutaneous administration.; format: functional
D(2) dopamine receptor = D(2) dopamine receptor (Rattus norvegicus, UniProt P61169); test: Compound was tested against Dopamine receptor D2 by displacement of [125I]iodosulpiride radioligand from rat D2 clones
Rattus norvegicus [3] = test: Antagonist activity against 5-HT3 receptor was assessed from ability to inhibit the 5-HT -induced bradycardia when dose given intravenously; inactive up to 1 mg/kg; format: functional, organism-based; parameters: dose 1 mg/kg
[4] = Mus musculus, sc, read-out: ED50

Sequence of D(2) dopamine receptor (P61169 whole entry): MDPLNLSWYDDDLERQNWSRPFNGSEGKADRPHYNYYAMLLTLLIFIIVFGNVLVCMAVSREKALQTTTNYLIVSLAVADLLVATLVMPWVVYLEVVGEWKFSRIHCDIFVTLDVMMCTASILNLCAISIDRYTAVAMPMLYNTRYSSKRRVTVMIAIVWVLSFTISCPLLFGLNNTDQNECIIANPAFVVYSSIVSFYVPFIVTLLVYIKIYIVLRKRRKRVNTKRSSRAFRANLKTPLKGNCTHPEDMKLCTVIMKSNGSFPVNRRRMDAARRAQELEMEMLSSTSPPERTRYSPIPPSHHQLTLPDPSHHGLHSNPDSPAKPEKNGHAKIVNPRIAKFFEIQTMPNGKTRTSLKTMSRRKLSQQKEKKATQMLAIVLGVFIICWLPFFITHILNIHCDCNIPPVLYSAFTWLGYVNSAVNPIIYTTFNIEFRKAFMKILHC

Row | SMILES | Ratio [1] | Activity (Rattus norvegicus [2]) [mg/kg] | ED50 (Mus musculus) [mg/kg] | further results
1 | COc1cc(N)c(Cl)cc1C(=O)NC1CCN2CCCC12 (centres undefined) | 15 | 0.5 |  | ED50 (Mus musculus; [4]): 7.5 mg/kg
2 | CCCC1CCCC2CC(NC(=O)c3cc(Cl)c(N)cc3OC)CCN12 (centres undefined) | > 10 | 1 |  | ED50 (Mus musculus; [4]): > 10 mg/kg
3 | COc1cc(N)c(Cl)cc1C(=O)NC[C@H]1CCC2CCCCN2C1 (some centres undefined) | > 125 | 0.2 |  | ED50 (Mus musculus; [4]): > 25 mg/kg; IC50 (D(2) dopamine receptor): 3.9 µM; Activity (Rattus norvegicus [3]): inactive
4 | COc1cc(N)c(Cl)cc1C(=O)NC1CCN2CCCC2(C)C1 (centres undefined) |  | >1 |  | ED50 (Mus musculus; [4]): > 30 mg/kg
5 | COc1cc(N)c(Cl)cc1C(=O)NC1CCN2C(C)CCC2C1 (centres undefined) | 30 | 0.5 |  | ED50 (Mus musculus; [4]): 15 mg/kg
6 | COc1cc(N)c(Cl)cc1C(=O)NC1CCC2CCCCN2CC1 (centres undefined) |  | >25 |  | ED50 (Mus musculus; [4]): > 50 mg/kg
7 | COc1cc(N)c(Cl)cc1C(=O)NCC1CC2CCCCN2C1 (centres undefined) |  | >25 |  | Activity (Rattus norvegicus [3]): inactive
8 | COc1cc(N)c(Cl)cc1C(=O)NCC1CCC2CCCCN2C1 (centres undefined) |  | 5 |  | 
9 | COc1cc(N)c(Cl)cc1C(=O)NCC1CCCN2CCCCC12 (single isomer, unassigned) |  | >25 |  | 
10 | COc1cc(N)c(Cl)cc1C(=O)NCC1CCC2CCCCN21 (single isomer, unassigned) [listing 1 of 2 here] |  | 0.2 |  | ED50 (Mus musculus; [4]): 15 mg/kg
11 | COc1cc(N)c(Cl)cc1C(=O)NC1CCN2CCCCC12 (single isomer, unassigned) [listing 1 of 2 here] |  | 0.5 | 0.2 | 
12 | COc1cc(N)c(Cl)cc1C(=O)NC1CCN2CCCCC12 (single isomer, unassigned) [listing 2 of 2 here] | 0.4 |  |  | 
13 | COc1cc(N)c(Cl)cc1C(=O)NCC1CCC2CCCCN21 (single isomer, unassigned) [listing 2 of 2 here] | 75 |  |  | 
14 | COc1cc(N)c(Cl)cc1C(=O)NC1CCCN2CCCCC2C1 (single isomer, unassigned; form 1) [listing 1 of 2 here] |  | 1 |  | ED50 (Mus musculus; [4]): > 50 mg/kg
15 | COc1cc(N)c(Cl)cc1C(=O)NC1CC2CCCCN2C1 (single isomer, unassigned; form 1) |  | >10 | >10 | 
16 | COc1cc(N)c(Cl)cc1C(=O)NC1CCCN2CCCCC2C1 (single isomer, unassigned; form 1) [listing 2 of 2 here] | > 50 |  |  | 
17 | COc1cc(N)c(Cl)cc1C(=O)NC1CCCN2CCCCC2C1 (single isomer, unassigned; form 2) [listing 1 of 2 here] |  |  | 38 | 
18 | COc1cc(N)c(Cl)cc1C(=O)NC1CC2CCCCN2C1 (single isomer, unassigned; form 2) |  |  | 0.1 | 
19 | COc1cc(N)c(Cl)cc1C(=O)NC1CCCN2CCCCC2C1 (single isomer, unassigned; form 2) [listing 2 of 2 here] | 38 |  |  | 
20 | COc1cc(N)c(Cl)cc1C(=O)NCC1CCC2CCCCN21 (stereo in doubt) |  | >1 | 20 | 
21 | COc1cc(N)c(Cl)cc1C(=O)NC1CCN2CCCCC12 (stereo in doubt) [listing 1 of 2 here] |  | 1 | 1.8 | 
22 | COc1cc(N)c(Cl)cc1C(=O)NC1CCN2C(C)CCCC2C1 (stereo in doubt) | 50 |  |  | 
23 | COc1cc(N)c(Cl)cc1C(=O)NC1CCN2CCCCC12 (stereo in doubt) [listing 2 of 2 here] | 1.8 |  |  | 
24 | COc1cc(N)c(Cl)cc1C(=O)NC1CCN2C(C)CCCC2C1 (stereo in doubt) [BRL-20627] |  | 0.5 |  | ED50 (Mus musculus; [4]): 25 mg/kg

Row | SMILES | Ratio [1] | Activity (Rattus norvegicus [2]) [mg/kg] | ED50 (Mus musculus) [mg/kg] | further results
25 | COc1cc(N)c(Cl)cc1C(=O)NC1CCN2C(C)CCCC2C1 (stereo in doubt; 2) | 50 |  |  | 
26 | COc1cc(N)c(Cl)cc1C(=O)NC1CCN2C(C)CCCC2C1 (stereo in doubt; 2) [BRL-20627] |  |  | 25 | 
27 | COc1cc(N)c(Cl)cc1C(=O)NC1CCN2CCCC2C1 (stereo in doubt; 8 (Eq)) [listing 1 of 2 here] |  | 5 |  | ED50 (Mus musculus; [4]): 6 mg/kg
28 | COc1cc(N)c(Cl)cc1C(=O)NC1CCN2CCCC2C1 (stereo in doubt; 8 (Eq)) [listing 2 of 2 here] | 1.2 |  |  | 
29 | COc1cc(N)c(Cl)cc1C(=O)NC1CCN2CCCC2C1 (stereo in doubt; 9 (Ax)) [listing 1 of 2 here] |  | 0.2 | 12 | 
30 | COc1cc(N)c(Cl)cc1C(=O)NC1CCN2CCCC2C1 (stereo in doubt; 9 (Ax)) [listing 2 of 2 here] | 60 |  |  | 
31 | COc1cc(N)c(Cl)cc1C(=O)NC1CCCN2CCCC12 (stereo in doubt; 10 (Eq)) |  | >5 | 3.5 | 
32 | COc1cc(N)c(Cl)cc1C(=O)NC1CCCN2CCCC12 (stereo in doubt; 11 (Ax)) [listing 1 of 2 here] |  | 0.5 | 0.1 | 
33 | COc1cc(N)c(Cl)cc1C(=O)NC1CCCN2CCCC12 (stereo in doubt; 11 (Ax)) [listing 2 of 2 here] | 0.2 |  |  | 
34 | COc1cc(N)c(Cl)cc1C(=O)NC1CCN2CC(C)CCC2C1 (stereo in doubt; 17) |  | >5 |  | ED50 (Mus musculus; [4]): > 10 mg/kg
35 | COc1cc(N)c(Cl)cc1C(=O)NC1CCN2CC(C)CCC2C1 (stereo in doubt; 18) |  | 5 |  | 
36 | COc1cc(N)c(Cl)cc1C(=O)NC1CCN2C(C)CCCC2C1 (stereo in doubt; 19) [BRL-20627] |  | >5 |  | 
37 | COc1cc(N)c(Cl)cc1C(=O)NC1CCN2C(CCCC2c2ccccc2)C1 (stereo in doubt; 21) |  |  |  | ED50 (Mus musculus; [4]): 5 mg/kg
38 | COc1cc(N)c(Cl)cc1C(=O)NC1CCN2C(CCCC2c2ccccc2)C1 (stereo in doubt; 22) |  | >5 | 5 | 
39 | COc1cc(N)c(Cl)cc1C(=O)NC1CC(C)N2CCCCC2C1 (stereo in doubt; 23) |  | >5 |  | 
40 | COc1cc(N)c(Cl)cc1C(=O)NC1CC(C)N2CCCCC2C1 (stereo in doubt; 25) |  | >1 |  | ED50 (Mus musculus; [4]): > 30 mg/kg
41 | COc1cc(N)c(Cl)cc1C(=O)NC1CC(C)N2CCCC2C1 (stereo in doubt; 27) [listing 1 of 2 here] |  |  | 10 | 
42 | COc1cc(N)c(Cl)cc1C(=O)NC1CC(C)N2CCCC2C1 (stereo in doubt; 27) [listing 2 of 2 here] | 10 |  |  | 
43 | COc1cc(N)c(Cl)cc1C(=O)NC1CC(C)N2CCCC2C1 (stereo in doubt; 28) [listing 1 of 2 here] |  | 1 | 50 | 
44 | COc1cc(N)c(Cl)cc1C(=O)NC1CC(C)N2CCCC2C1 (stereo in doubt; 28) [listing 2 of 2 here] | 50 |  |  | 
45 | COc1cc(N)c(Cl)cc1C(=O)NC1CC(C)N2CCCC2C1 (stereo in doubt; 29) [listing 1 of 2 here] |  |  | 34 | 
46 | COc1cc(N)c(Cl)cc1C(=O)NC1CC(C)N2CCCC2C1 (stereo in doubt; 29) [listing 2 of 2 here] | 34 |  |  | 
47 | COc1cc(N)c(Cl)cc1C(=O)NC1CC(C)N2CCCC2C1 (stereo in doubt; 30) |  | >1 | >50 | 
48 | CCN(CC)CCNC(=O)c1cc(Cl)c(N)cc1OC [METOCLOPRAMIDE] | 0.8 | 1 |  | ED50 (Mus musculus; [4]): 0.8 mg/kg
